What is called Ki is the equilibrium dissociation constant of an inhibitor or competing ligand from its target.

From US7723527B2 (Janssen Pharmaceutica NV, priority 2003, dated 2010) come the findings set out here.

T1 sequence (Q9H3N8 whole entry): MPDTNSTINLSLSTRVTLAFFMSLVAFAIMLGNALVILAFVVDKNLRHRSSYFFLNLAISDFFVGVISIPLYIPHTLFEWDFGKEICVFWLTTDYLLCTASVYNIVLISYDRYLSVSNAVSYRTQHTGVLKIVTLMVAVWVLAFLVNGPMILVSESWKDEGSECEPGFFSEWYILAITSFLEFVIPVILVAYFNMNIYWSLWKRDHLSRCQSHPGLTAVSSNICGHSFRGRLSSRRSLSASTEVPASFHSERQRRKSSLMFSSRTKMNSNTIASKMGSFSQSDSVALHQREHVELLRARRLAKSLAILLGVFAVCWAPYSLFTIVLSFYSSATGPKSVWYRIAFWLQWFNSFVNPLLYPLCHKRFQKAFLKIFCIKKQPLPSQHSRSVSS

The assay has as its target T1, human histamine H4 receptor (Homo sapiens, UniProt Q9H3N8).
T1 construct: expressed in transfected cells; host or cells: SK-N-MC cells or COS7 cells, transiently transfected; cell membranes used
Kind of assay: Binding assay on recombinant human histamine H4 receptor (3H-histamine displacement). The settings on record: competition binding with 3H-histamine; membranes of SK-N-MC or COS7 cells expressing human H4 receptor; Cheng-Prusoff, KD 5 nM, ligand 5 nM. Summed up:
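Membranes from SK-N-MC or COS7 cells transiently transfected with human H4R, incubated with ^3H-histamine (5-70 nM) at room temperature for 45 min, nonspecific binding with 10,000 nM histamine. Filtration and scintillation counting; compound affinity from displacement of ^3H-ligand across varying concentrations.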
For `Cc1c(F)ccc2[nH]c(-c3ccc(OCCCN4CCN(C)CC4)nc3)nc12` [Example 105, 5-Fluoro-4-methyl-2-{6-[3-(4-methyl-piperazin-1-yl)-propoxy]-pyridin-3-yl}-1H-benzoimidazole], the Ki was found to be 85 nM.
The same measure for `Cc1cccc2[nH]c(-c3ccc(OCCCC4CCN(C)CC4)nc3)nc12` [Example 106, 4-Methyl-2-{6-[3-(1-methyl-piperidin-4-yl)-propoxy]-pyridin-3-yl}-1H-benzoimidazole]: 12 nM; for `Cc1ccc2[nH]c(-c3ccc(OCCCC4CCN(C)CC4)nc3)nc2c1C` [Example 107, 4,5-Dimethyl-2-{6-[3-(1-methyl-piperidin-4-yl)-propoxy]-pyridin-3-yl}-1H-benzoimidazole]: 26 nM; for `CN1CCC(CCCOc2ccc(-c3nc4c(Cl)cccc4[nH]3)cn2)CC1` [Example 108, 4-Chloro-2-{6-[3-(1-methyl-piperidin-4-yl)-propoxy]-pyridin-3-yl}-1H-benzoimidazole]: 31 nM.
The same measure for `Cc1cc(OCCCC2CCN(C)CC2)ncc1-c1nc2c(C)cc(Cl)cc2[nH]1` [Example 109, 6-Chloro-4-methyl-2-{4-methyl-6-[3-(1-methyl-piperidin-4-yl)-propoxy]-pyridin-3-yl}-1H-benzoimidazole]: 6 nM; for `Cc1cc(OCCCC2CCN(C)CC2)ncc1-c1nc2c(C)cccc2[nH]1` [Example 110, 4-Methyl-2-{4-methyl-6-[3-(1-methyl-piperidin-4-yl)-propoxy]-pyridin-3-yl}-1H-benzoimidazole]: 6 nM.
Take `Cc1cc(OCCCC2CCN(C)CC2)ncc1-c1nc2c(C)c(F)ccc2[nH]1` [Example 111, 5-Fluoro-4-methyl-2-{4-methyl-6-[3-(1-methyl-piperidin-4-yl)-propoxy]-pyridin-3-yl}-1H-benzoimidazole]: the Ki turned out to be 21 nM.
As for `Cc1cc(OCCCC2CCN(C)CC2)ncc1-c1nc2c(C)c(C)ccc2[nH]1` [Example 112, 4,5-Dimethyl-2-{4-methyl-6-[3-(1-methyl-piperidin-4-yl)-propoxy]-pyridin-3-yl}-1H-benzoimidazole], the inhibitory constant (Ki) is 6 nM.
For `Cc1cc(C)c2nc(-c3cnc(OCCCC4CCN(C)CC4)cc3C)[nH]c2c1` [Example 113, 4,6-Dimethyl-2-{4-methyl-6-[3-(1-methyl-piperidin-4-yl)-propoxy]-pyridin-3-yl}-1H-benzoimidazole], the inhibition constant Ki amounted to 4 nM.
The same measure for `Cc1cc(OCCCC2CCN(C)CC2)ncc1-c1nc2c(Cl)cccc2[nH]1` [Example 114, 4-Chloro-2-{4-methyl-6-[3-(1-methyl-piperidin-4-yl)-propoxy]-pyridin-3-yl}-1H-benzoimidazole]: 11 nM; for `Cc1c(F)ccc2[nH]c(-c3cnc(OCCCC4CCN(C)CC4)cc3Cl)nc12` [Example 115, 2-{4-Chloro-6-[3-(1-methyl-piperidin-4-yl)-propoxy]-pyridin-3-yl}-5-fluoro-4-methyl-1H-benzoimidazole]: 4 nM; for `Cc1cccc2[nH]c(-c3cnc(OCCCC4CCN(C)CC4)cc3Cl)nc12` [Example 116, 2-{4-Chloro-6-[3-(1-methyl-piperidin-4-yl)-propoxy]-pyridin-3-yl}-4-methyl-1H-benzoimidazole]: 12 nM.
The same measure for `Cc1cc(Cl)cc2[nH]c(-c3cnc(OCCCC4CCN(C)CC4)cc3Cl)nc12` [Example 117, 6-Chloro-2-{4-chloro-6-[3-(1-methyl-piperidin-4-yl)-propoxy]-pyridin-3-yl}-4-methyl-1H-benzoimidazole]: 5 nM; for `Cc1cc(C)c2nc(-c3cnc(OCCCC4CCN(C)CC4)cc3Cl)[nH]c2c1` [Example 118, 2-{4-Chloro-6-[3-(1-methyl-piperidin-4-yl)-propoxy]-pyridin-3-yl}-4,6-dimethyl-1H-benzoimidazole]: 4 nM; for `COc1cc(OCCCC2CCN(C)CC2)ncc1-c1nc2c(C)cccc2[nH]1` [Example 119, 2-{4-Methoxy-6-[3-(1-methyl-piperidin-4-yl)-propoxy]-pyridin-3-yl}-4-methyl-1H-benzoimidazole]: 51 nM.
The same measure for `COc1cc(OCCCC2CCN(C)CC2)ncc1-c1nc2c(C)c(F)ccc2[nH]1` [Example 120, 5-Fluoro-2-{4-methoxy-6-[3-(1-methyl-piperidin-4-yl)-propoxy]-pyridin-3-yl}-4-methyl-1H-benzoimidazole]: 94 nM; for `Cc1c(F)ccc2[nH]c(-c3ccc(OCCCC4=CCN(C)CC4)nc3)nc12` [Example 121, 5-Fluoro-4-methyl-2-{6-[3-(1-methyl-1,2,3,6-tetrahydro-pyridin-4-yl)-propoxy]-pyridin-3-yl}-1H-benzoimidazole]: 60 nM; for `Cc1cccc2[nH]c(-c3ccc(OCCCC4=CCN(C)CC4)nc3)nc12` [Example 122, 4-Methyl-2-{6-[3-(1-methyl-1,2,3,6-tetrahydro-pyridin-4-yl)-propoxy]-pyridin-3-yl}-1H-benzoimidazole]: 71 nM.
Regarding `Cc1cc(Cl)cc2[nH]c(-c3ccc(OCCCC4=CCN(C)CC4)nc3)nc12` [Example 123, 6-Chloro-4-methyl-2-{6-[3-(1-methyl-1,2,3,6-tetrahydro-pyridin-4-yl)-propoxy]-pyridin-3-yl}-1H-benzoimidazole], the Ki is 67 nM.
On to `Cc1ccc2[nH]c(-c3ccc(OCCCC4=CCN(C)CC4)nc3)nc2c1C` [Example 124, 4,5-Dimethyl-2-{6-[3-(1-methyl-1,2,3,6-tetrahydro-pyridin-4-yl)-propoxy]-pyridin-3-yl}-1H-benzoimidazole], for which the Ki was determined as 86 nM.
For `Cc1cc(C)c2nc(-c3ccc(OCCCC4=CCN(C)CC4)nc3)[nH]c2c1` [Example 125, 4,6-Dimethyl-2-{6-[3-(1-methyl-1,2,3,6-tetrahydro-pyridin-4-yl)-propoxy]-pyridin-3-yl}-1H-benzoimidazole], the Ki was found to be 77 nM.
In the case of `Cc1c(Cl)ccc2[nH]c(-c3ccc(OCCCC4=CCN(C)CC4)nc3)nc12` [Example 126, 5-Chloro-4-methyl-2-{6-[3-(1-methyl-1,2,3,6-tetrahydro-pyridin-4-yl)-propoxy]-pyridin-3-yl}-1H-benzoimidazole], the Ki stood at 427 nM.
For the molecule `Cc1c(F)ccc2[nH]c(-c3cnc(OCCCC4CCN(C)CC4)cc3CN3CCCC3)nc12` [Example 127, 5-Fluoro-4-methyl-2-{6-[3-(1-methyl-piperidin-4-yl)-propoxy]-4-pyrrolidin-1-ylmethyl-pyridin-3-yl}-1H-benzoimidazole], the inhibition constant (Ki) is 773 nM.
The same measure for `Cc1cccc2[nH]c(-c3cc(OCCCCC4CCN(C)CC4)ncc3Br)nc12` [Example 128, 2-{5-Bromo-2-[4-(1-methyl-piperidin-4-yl)-butoxy]-pyridin-4-yl}-4-methyl-1H-benzoimidazole]: 3 nM.
The same measure for `Cc1c(F)ccc2[nH]c(-c3cc(OCCCCC4CCN(C)CC4)ncc3Br)nc12` [Example 129, 2-{5-Bromo-2-[4-(1-methyl-piperidin-4-yl)-butoxy]-pyridin-4-yl}-5-fluoro-4-methyl-1H-benzoimidazole]: 5 nM.
The same measure for `Cc1cc(Cl)cc2[nH]c(-c3cc(OCCCCC4CCN(C)CC4)ncc3Br)nc12` [Example 130, 2-{5-Bromo-2-[4-(1-methyl-piperidin-4-yl)-butoxy]-pyridin-4-yl}-6-chloro-4-methyl-1H-benzoimidazole]: 5 nM.
As for `Cc1cc(C)c2nc(-c3cc(OCCCCC4CCN(C)CC4)ncc3Br)[nH]c2c1` [Example 131, 2-{5-Bromo-2-[4-(1-methyl-piperidin-4-yl)-butoxy]-pyridin-4-yl}-4,6-dimethyl-1H-benzoimidazole], the Ki stood at 3 nM.
With `Cc1ccc2[nH]c(-c3cc(OCCCCC4CCN(C)CC4)ncc3Br)nc2c1C` [Example 132, 2-{5-Bromo-2-[4-(1-methyl-piperidin-4-yl)-butoxy]-pyridin-4-yl}-4,5-dimethyl-1H-benzoimidazole], the inhibitory constant (Ki) was found to be 5 nM.
The same measure for `Cc1c(Cl)ccc2[nH]c(-c3cc(OCCCCC4CCN(C)CC4)ncc3Br)nc12` [Example 133, 2-{5-Bromo-2-[4-(1-methyl-piperidin-4-yl)-butoxy]-pyridin-4-yl}-5-chloro-4-methyl-1H-benzoimidazole]: 12 nM; for `CN1CCC(CCCCOc2cc(-c3nc4cc(C(C)(C)C)ccc4[nH]3)c(Br)cn2)CC1` [Example 134, 2-{5-Bromo-2-[4-(1-methyl-piperidin-4-yl)-butoxy]-pyridin-4-yl}-5-tert-butyl-1H-benzoimidazole]: 117 nM.
The same measure for `CN1CCC(CCCCOc2cc(-c3nc4cc(C(C)(C)C)ccc4[nH]3)ccn2)CC1` [Example 135, 5-tert-Butyl-2-{2-[4-(1-methyl-piperidin-4-yl)-butoxy]-pyridin-4-yl}-1H-benzoimidazole]: 47 nM; for `Cc1c(F)ccc2[nH]c(-c3cc(OCCCCC4CCN(C)CC4)ncc3Cl)nc12` [Example 136, 2-{5-Chloro-2-[4-(1-methyl-piperidin-4-yl)-butoxy]-pyridin-4-yl}-5-fluoro-4-methyl-1H-benzoimidazole]: 1 nM; for `Cc1ccc2[nH]c(-c3cc(OCCCCC4CCN(C)CC4)ncc3Cl)nc2c1C` [Example 137, 2-{5-Chloro-2-[4-(1-methyl-piperidin-4-yl)-butoxy]-pyridin-4-yl}-4,5-dimethyl-1H-benzoimidazole]: 3 nM.
As for `Cc1cc(C)c2nc(-c3ccnc(OCCCCN4CCN(C)CC4)c3)[nH]c2c1` [Example 138, 4,6-Dimethyl-2-{2-[4-(4-methyl-piperazin-1-yl)-butoxy]-pyridin-4-yl}-1H-benzoimidazole], the Ki is 46 nM.
The same measure for `Cc1cccc2[nH]c(-c3ccnc(OCCCCN4CCN(C)CC4)c3)nc12` [Example 139, 4-Methyl-2-{2-[4-(4-methyl-piperazin-1-yl)-butoxy]-pyridin-4-yl}-1H-benzoimidazole]: 69 nM.
